# According to patent US7867978B2, “Methods and compositions for treating neurological disorders” (The University of Kentucky Research Foundation, priority 2007, dated 2011):
# Entries after “also recorded” stand apart in the source; their conditions may differ. Ends that are not written are not given here.
# Legend:
# iNOS [1] = assay: iNOS activity in cell lines stably transfected with Kalirin-7, iNOS induced by iNOS plasmid, LPS or LPS plus Aβ1-42; assay type: cell-based; conditions: for iNOS activity: AtT20, SH-SY5Y, Neuro2A and C6 cell lines, iNOS raised by iNOS plasmid, LPS, or LPS plus Aβ1-42, Canavanine or L-NAME 10 mM; for Aβ1-42-augmented iNOS activity: LPS plus Aβ1-42 treated cell lines
# Protocol: Assays for iNOS and NOS—The hippocampal and cerebellar specimens and the transfected cells were homogenized in 50 mM Tris HCl (pH 7.4), 1 mM EDTA, 0.1 mM tetrahydrobiopterin, 2 mM dithiothreitol, 10% (v/v) glycerol, aprotinin (25 μg/ml), leupeptin (25 μg/ml), 100 μM PMSF, 10 μM FMN, and 10 μM FAD. The homogenates were centrifuged at 2,000×g for 15 min, and the supernatants were assayed for iNOS. iNOS was also assayed in the presence of 10 mM Canavanine (Sigma) or L-NAME (Sigma). The collective activity of NOS (including eNOS, nNOS and iNOS) was determined in an identical fashion to iNOS activity, but in the presence of 1.25 mM Ca^2+.
# Preparation of Aβ1-42 peptide—One mM of A β1-42 (Biosource) was prepared in a capped vial at 37° C. for 5 days, and stored at −20° C. The frozen stock solution was diluted and used at the final concentration of 10 μM.
# Cell culture and transfection—AtT-20 cells (ATCC# CCL-89), SH-SY5Y cells (ATCC# CRL-2266), C6 cells (ATCC# CCL-107) and Neuro-2A cells (ATCC # CCL-131) were cultured according to the supplier's instructions. Each cell line was grown in a 25 cm^2 flask, stably transfected with pcDNA4 vector carrying Kalirin-7 or pcDNA3 carrying iNOS, using SuperFect transfection reagents (Qiagen) following the manufacture's instructions. Stable cell lines were selected using 0.5 mg/ml of G-418 for pcDNA3 or 0.12 μg/ml of zeocin for pcDNA4.
# To induce the iNOS activity, cell lines were transfected with iNOS in pcDNA3 or stimulated with 3 μg/ml of lipopolysaccharides (LPS) for 12-16 h (27) or 10 μM A β1-42 peptide for 18 h. Two different approaches of double transfection with Kalirin-7 and iNOS were used to determine the effects of Kalirin-7 on iNOS. The cell line stably expressing Kalirin-7 was transiently transfected with iNOS, and conversely, the cell line stably expressing iNOS was transiently transfected with increasing amounts of pcDNA4 carrying Kalirin-7 or Kalirin domains.
# iNOS [2] = target: T1, iNOS (Homo sapiens, UniProt P35228); assay: iNOS activity in AtT-20 cells stably expressing iNOS, transiently transfected with Kalirin-7, Kalirin domain or section plasmids; assay type: cell-based, mouse
# T1 construct: expressed in transfected cells
# Protocol: Assays for iNOS and NOS-The hippocampal and cerebellar specimens and the transfected cells were homogenized in 50 mM Tris HCl (pH 7.4), 1 mM EDTA, 0.1 mM tetrahydrobiopterin, 2 mM dithiothreitol, 10% (v/v) glycerol, aprotinin (25 μg/ml), leupeptin (25 μg/ml), 100 μM PMSF, 10 μM FMN, and 10 μM FAD. […] The collective activity of NOS (including eNOS, nNOS and iNOS) was determined in an identical fashion to iNOS activity, but in the presence of 1.25 mM Ca^2+. Cell culture and transfection-AtT-20 cells (ATCC# CCL-89), SH-SY5Y cells (ATCC# CRL-2266), C6 cells (ATCC# CCL-107) and Neuro-2A cells (ATCC # CCL-131) were cultured according to the supplier's instructions. Each cell line was grown in a 25 cm^2 flask, stably transfected with pcDNA4 vector carrying […]-7 or pcDNA3 carrying iNOS, using SuperFect transfection reagents (Qiagen) following the manufacture's instructions. Stable cell lines were selected using 0.5 mg/ml of G-418 for pcDNA3 or 0.12 μg/ml of zeocin for pcDNA4. To induce the iNOS activity, cell lines were transfected with iNOS in pcDNA3 or stimulated with 3 μg/ml of lipopolysaccharides (LPS) for 12-16 h (27) or 10 μM A β1-42 peptide for 18 h. Two different approaches of double transfection with […]-7 and iNOS were used to determine the effects of […]-7 on iNOS. The cell line stably expressing […]-7 was transiently transfected with iNOS, and conversely, the cell line stably expressing iNOS was transiently transfected with increasing amounts of pcDNA4 carrying […]-7 or […] domains.
# [3] = system: AtT-20 cells stably expressing iNOS; assay: Renilla luciferase assay as transfection reference for toxic effect of plasmid DNA; assay type: cell-based, mouse; conditions: increasing plasmid amounts co-transfected with constant pRL-TK vector
# Protocol: To test the putative toxic effect of high concentrations of plasmid DNA, up to 2.5 μg, the Renilla luciferase assay (Promega) was used as a transfection reference. The AtT-20 cells stably expressing iNOS were transiently transfected with a constant amount of the pRL-TK vector (Promega) carrying Renilla luciferase and increasing amounts of the Kalirin plasmid. The co-transfected cells were assayed for iNOS and luciferase following the manufacturer's instructions.
# iNOS [4] = target: T1, iNOS; assay: Co-immunoprecipitation of iNOS with Kalirin-7 by anti-Kalirin in co-transfected AtT-20 cells; assay type: binding; conditions: increasing amounts of Kalirin-7 plasmid
# Protocol: Immunoblot and immunoprecipitation—Proteins were extracted. Brain samples were directly solubilized in 10 volume of lysis buffer (50 mM Tris HCl at pH 7.5, 120 mM NaCl, 5 mM EDTA, 1% Nonidet P-40 (0.3 mg/ml), 8 μg/ml aprotinin, 2 μg/ml pepstatin A, 2 μg/ml leupeptin, 1 mM Na3VO4, 50 mM NaF and 0.2% of SDS) using Omni 2000 homogenizer (Omni International Inc). The solubilized samples were centrifuged at 15,000×g for 10 min, the supernatants were saved, and protein concentration was measured by the Bradford method. Cultured cells were suspended in another lysis buffer consisting of 100 mM Tris HCl (pH7.5), 150 mM NaCl, 2 mM EDTA, 0.5% of Triton X-100, 1 mM PMSF, 4 μg/ml aprotinin, 1 μg/ml pepstatin A, 1 μg/ml leupeptin, 1 mM Na3VO4, 50 mM NaF and 0.2% of SDS), and processed.
# An equal protein-amount of solubilized supernatants was resolved by SDS-PAGE and blotted onto polyvinylidene difluoride membrane. The membranes were incubated for 1 h in blocking solution containing 3% bovine serum albumin. The membranes were incubated for 1 h with primary antibodies diluted 1:500 in Tris-buffered saline containing 0.1% Tween 20. After washing, membranes were incubated for 1 h in 1:10,000 dilution of secondary antibodies coupled to horseradish peroxidase. […] Blots were scanned, and the band intensity was digitized and quantified using Molecular Dynamics Image Quant 5.1. […]
# T1 sequence (P35228 whole entry, species assumed, the tested form may be a part): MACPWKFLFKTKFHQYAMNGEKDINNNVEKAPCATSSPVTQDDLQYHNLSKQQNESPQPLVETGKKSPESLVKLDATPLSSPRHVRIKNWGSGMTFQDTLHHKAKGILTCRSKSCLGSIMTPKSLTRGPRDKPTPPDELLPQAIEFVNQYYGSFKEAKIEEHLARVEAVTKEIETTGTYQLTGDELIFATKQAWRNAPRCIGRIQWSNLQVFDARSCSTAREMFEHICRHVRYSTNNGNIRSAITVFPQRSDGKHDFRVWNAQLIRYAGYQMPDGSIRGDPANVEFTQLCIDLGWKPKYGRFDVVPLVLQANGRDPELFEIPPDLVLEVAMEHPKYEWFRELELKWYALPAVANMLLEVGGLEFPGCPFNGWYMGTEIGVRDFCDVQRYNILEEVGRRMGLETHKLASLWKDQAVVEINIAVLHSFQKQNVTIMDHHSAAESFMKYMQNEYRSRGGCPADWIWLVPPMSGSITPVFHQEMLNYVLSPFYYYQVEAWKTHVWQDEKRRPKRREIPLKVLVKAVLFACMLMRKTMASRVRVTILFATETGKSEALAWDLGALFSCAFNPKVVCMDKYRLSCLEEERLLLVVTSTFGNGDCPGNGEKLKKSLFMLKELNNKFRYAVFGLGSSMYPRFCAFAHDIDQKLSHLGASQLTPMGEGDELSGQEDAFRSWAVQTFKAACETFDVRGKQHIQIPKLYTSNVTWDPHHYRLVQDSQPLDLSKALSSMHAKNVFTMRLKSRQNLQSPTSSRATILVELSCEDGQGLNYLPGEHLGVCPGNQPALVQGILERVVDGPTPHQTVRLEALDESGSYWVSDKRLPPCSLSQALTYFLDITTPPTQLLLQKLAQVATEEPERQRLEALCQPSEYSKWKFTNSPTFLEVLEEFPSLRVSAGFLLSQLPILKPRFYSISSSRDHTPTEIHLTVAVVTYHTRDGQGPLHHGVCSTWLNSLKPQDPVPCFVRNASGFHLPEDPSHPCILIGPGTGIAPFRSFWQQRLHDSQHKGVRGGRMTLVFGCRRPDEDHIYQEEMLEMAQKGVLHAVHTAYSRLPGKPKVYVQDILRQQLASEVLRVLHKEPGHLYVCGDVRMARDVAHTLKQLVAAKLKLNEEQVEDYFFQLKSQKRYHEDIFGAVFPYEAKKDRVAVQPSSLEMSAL
compound,measurement,setting,value
N=C(N)NOCC[C@H](N)C(=O)O [Canavanine],iNOS activity,iNOS [1],suppressed to basal levels
same,Aβ1-42-augmented iNOS activity,iNOS [1],attenuated
COC(=O)[C@@H](N)CCCNC(=N)N[N+](=O)[O-] [L-NAME],iNOS activity,iNOS [1],suppressed to basal levels
same,Aβ1-42-augmented iNOS activity,iNOS [1],attenuated
"Aβ1-42: amyloidogenic peptide Aβ1-42 (Biosource), used at 10 μM",iNOS activity induced by LPS treatment,"iNOS [1]; LPS plus 10 μM Aβ1-42, stable cell lines",augments iNOS activity
"D2: Kalirin domain consisting of the 354 amino acid V506-Q860 sequence of SEQ ID NO:2, expressed from pcDNA4",iNOS activity,iNOS [2]; transient transfection with pcDNA4 carrying individual Kalirin-7 domains,attenuated; also recorded: most notably attenuated
KAARHLEVRIQDFVRRVEQRKLLLDMSVSFHTH (also: Flag epitope tag; listed as Homo sapiens) [section # 8],suppression of iNOS versus plasmid concentration,iNOS [2]; increasing amounts of Kalirin section 8 plasmid,dependent on the concentration
same,iNOS suppression,"iNOS [2]; transient transfection with pcDNA4 carrying individual 33 amino acid sections, compared with D2 and wild type Kalirin 7",suppressed most effectively
"Kalirin-7: cytoplasmic protein of >1,660 amino acids (SEQ ID NO:2), expressed from pcDNA4 carrying the Kalirin-7 cDNA",iNOS activity,iNOS [1],suppressed to basal levels
same,Aβ1-42-augmented iNOS activity,iNOS [1],attenuated
same,iNOS activity,iNOS [2]; increasing amounts of pcDNA4 Kalirin-7 vector,decreased
same,synthesis and activity of Renilla luciferase (putative toxic effect of plasmid),[3],did not impair
same,iNOS co-immunoprecipitated by anti-Kalirin,iNOS [4],increasing concentrations of iNOS were co-immunoprecipitated
